Assay results as given in ChEMBL document CHEMBL4808171, “Structure-Activity Relationship Study and Biological Evaluation of 2-(Disubstituted phenyl)-indole-5-propanoic Acid Derivatives as GPR40 Full Agonists” (J Med Chem, 2021).
Calls of active or inactive are those of the source. The rule behind the calls is not given here.

Legend:
[1] = molecular target: T1, Peroxisome proliferator-activated receptor gamma (Homo sapiens) (UniProt P37231); assay: Agonist activity at human PPARgamma expressed in CHO cells assessed as increase in receptor transcriptional activity at 1 uM incubated for 24 hrs by dual luciferase reporter gene assay relative to rosiglitazone; type: cell-based
T1 sequence (whole entry): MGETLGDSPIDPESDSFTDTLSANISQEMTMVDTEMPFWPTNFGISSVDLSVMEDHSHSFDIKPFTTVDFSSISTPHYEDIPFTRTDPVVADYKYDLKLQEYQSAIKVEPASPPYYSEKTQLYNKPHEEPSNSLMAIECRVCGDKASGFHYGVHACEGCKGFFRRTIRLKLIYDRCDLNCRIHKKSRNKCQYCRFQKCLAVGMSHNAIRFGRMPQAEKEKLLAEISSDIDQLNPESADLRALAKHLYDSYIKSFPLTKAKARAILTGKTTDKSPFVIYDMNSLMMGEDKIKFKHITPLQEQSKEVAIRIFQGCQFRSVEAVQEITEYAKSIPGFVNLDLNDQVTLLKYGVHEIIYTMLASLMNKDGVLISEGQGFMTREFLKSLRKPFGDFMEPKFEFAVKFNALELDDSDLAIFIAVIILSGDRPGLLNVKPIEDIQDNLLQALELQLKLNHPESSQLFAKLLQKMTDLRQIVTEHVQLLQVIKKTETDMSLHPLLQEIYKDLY

[2] = molecular target: Free fatty acid receptor 1 (Homo sapiens, UniProt O14842); assay: Agonist activity at GPR40 (unknown origin) expressed in CHO cells co-expressing luc2P/SRE assessed as firefly luciferase activity at 10 uM incubated for 24 hrs hrs by Bright-Glo based serum response element (SRE) luciferase reporter assay relative to TAK875; type: functional, cell-based
[3] = molecular target: T2, Peroxisome proliferator-activated receptor gamma (Homo sapiens, UniProt P37231); assay: Agonist activity at human PPARgamma expressed in CHO cells assessed as increase in receptor transcriptional activity incubated for 24 hrs by dual luciferase reporter gene assay; type: cell-based
T2 sequence (P37231 whole entry): T1 sequence (whole entry)

STC1 = assay: Induction of GLP-1 secretion in […] STC1 cells at 100 uM after 1 hrs by ELISA; type: functional, cell-based

Chain of Free fatty acid receptor 1 (O14842 whole entry): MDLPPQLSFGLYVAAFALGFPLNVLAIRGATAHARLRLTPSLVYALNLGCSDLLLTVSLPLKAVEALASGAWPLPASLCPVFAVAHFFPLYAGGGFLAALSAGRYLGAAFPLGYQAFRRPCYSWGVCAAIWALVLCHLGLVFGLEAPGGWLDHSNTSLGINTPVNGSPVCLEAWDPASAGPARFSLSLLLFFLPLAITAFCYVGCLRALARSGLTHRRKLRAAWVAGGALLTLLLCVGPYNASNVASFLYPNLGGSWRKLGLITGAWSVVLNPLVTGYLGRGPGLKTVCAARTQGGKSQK

| Emax [1] [%] | Emax ([2]; filed as agonist) [%] | Emax [2] [%] | Structure (SMILES) | further results |
| --- | --- | --- | --- | --- |
| 0.52 | 69.5 |  | Cc1cccc(C)c1-c1cc2cc(CCC(=O)O)ccc2[nH]1 |  |
| 18.2 |  | 6.81 | O=C(O)CCc1ccc2[nH]c(-c3cccc(Cl)c3F)cc2c1 |  |
| 11.5 | 78.3 |  | O=C(O)CCc1ccc2[nH]c(-c3c(Cl)cccc3Cl)cc2c1 |  |
| 2.69 |  | 22.8 | O=C(O)CCc1ccc2[nH]c(-c3cc(Cl)ccc3Cl)cc2c1 |  |
|  | 109 |  | Cc1c(Cl)cccc1-c1cc2cc(CCC(=O)O)ccc2[nH]1 | EC50 ([3]; cho): Not Active |
| 12.8 | 81.2 |  | O=C(O)CCc1ccc2[nH]c(-c3cccc(Cl)c3Cl)cc2c1 |  |
| 5.39 | 48 |  | O=C(O)CCc1ccc2[nH]c(-c3ccc(Cl)cc3Cl)cc2c1 |  |

The remaining lines, values behind:

| Structure (SMILES) | Emax [1] [%] | Emax ([2]; filed as agonist) [%] | Emax [2] [%] | further results |
| --- | --- | --- | --- | --- |
| Cc1ccc(-c2cc3cc(CCC(=O)O)ccc3[nH]2)c(C)c1 | 2.51 | 61.8 |  |  |
| O=C(O)CCc1ccc2[nH]c(-c3ccncc3Cl)cc2c1 | 0.19 |  | 24.7 |  |
| Cc1ccc(C)c(-c2cc3cc(CCC(=O)O)ccc3n2C)c1 | 0.01 |  | 20.3 |  |
| O=C(O)CCc1ccc2[nH]c(-c3ccc(Cl)cc3F)cc2c1 | 3.64 |  | 2.18 |  |
| Cc1cc(Cl)ccc1-c1cc2cc(CCC(=O)O)ccc2[nH]1 |  | 109 |  | EC50 ([3]; read-out: EC50): 27.8 µM; Emax ([1]; filed as agonist): 104% |
| O=C(O)CCc1ccc2[nH]c(-c3ccc(Cl)cc3C(F)(F)F)cc2c1 | 15.9 |  | 7.67 |  |
| Cc1cc(Br)ccc1-c1cc2cc(CCC(=O)O)ccc2[nH]1 | 30.6 | 95.3 |  |  |
| Cc1cc(F)ccc1-c1cc2cc(CCC(=O)O)ccc2n1C | 6.32 |  | 16.9 |  |
| CCCCC/C=C\C/C=C\CCCCCCCC(=O)O |  |  |  | Activity (STC1): Active |
| Cc1ccc(Cl)cc1-c1cc2cc(CCC(=O)O)ccc2[nH]1 | 18.3 |  | 35 |  |
